# Data taken from patent US20210070748A1, “INHIBITORS OF BRUTONS TYROSINE KINASE” (Pharmacyclics LLC, priority 2015, published 2021).
# pIC50: −log10 of the molar value. Like-named read-outs stand apart in the source and are kept apart here.
# Legend:
# [1] = target: T1, JAK3 (Homo sapiens, UniProt P52333); assay: Inhibition of a panel of kinases, in vitro HotSpot kinase assay: JAK3; format: biochemical; settings: 1 μM ATP, read-out: JAK3 (IC50)
# T1 sequence (P52333 1-1124): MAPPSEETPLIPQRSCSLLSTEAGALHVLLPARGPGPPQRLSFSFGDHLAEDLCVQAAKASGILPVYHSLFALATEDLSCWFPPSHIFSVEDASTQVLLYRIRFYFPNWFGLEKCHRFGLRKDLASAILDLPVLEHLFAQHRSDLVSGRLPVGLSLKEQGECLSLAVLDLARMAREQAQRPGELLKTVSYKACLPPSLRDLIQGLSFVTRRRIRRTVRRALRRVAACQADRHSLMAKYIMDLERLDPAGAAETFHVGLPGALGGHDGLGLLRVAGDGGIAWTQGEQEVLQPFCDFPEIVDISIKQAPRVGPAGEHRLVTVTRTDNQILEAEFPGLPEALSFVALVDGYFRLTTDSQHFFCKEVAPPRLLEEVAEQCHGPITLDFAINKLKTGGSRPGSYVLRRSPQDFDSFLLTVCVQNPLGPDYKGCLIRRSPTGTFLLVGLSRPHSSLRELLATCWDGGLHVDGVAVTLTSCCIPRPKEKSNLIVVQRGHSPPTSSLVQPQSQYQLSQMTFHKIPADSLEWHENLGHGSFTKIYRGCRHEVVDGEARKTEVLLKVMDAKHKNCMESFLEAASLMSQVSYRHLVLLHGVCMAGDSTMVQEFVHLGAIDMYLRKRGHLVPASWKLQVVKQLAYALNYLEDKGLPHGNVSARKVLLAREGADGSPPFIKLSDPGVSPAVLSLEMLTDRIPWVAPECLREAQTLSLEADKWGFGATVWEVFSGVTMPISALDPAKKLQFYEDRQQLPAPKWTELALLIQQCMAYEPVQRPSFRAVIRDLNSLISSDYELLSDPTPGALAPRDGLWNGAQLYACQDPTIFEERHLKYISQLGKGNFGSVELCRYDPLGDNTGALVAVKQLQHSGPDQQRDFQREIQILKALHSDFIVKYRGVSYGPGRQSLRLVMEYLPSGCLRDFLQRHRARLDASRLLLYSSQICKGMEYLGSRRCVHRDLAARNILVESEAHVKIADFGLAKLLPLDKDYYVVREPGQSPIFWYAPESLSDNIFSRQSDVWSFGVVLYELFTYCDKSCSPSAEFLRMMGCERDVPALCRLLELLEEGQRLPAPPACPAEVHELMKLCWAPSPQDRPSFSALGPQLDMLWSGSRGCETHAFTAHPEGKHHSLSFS
# [2] = target: T2, BTK-WT (Homo sapiens, UniProt Q06187); assay: Btk in vitro inhibitory activity (one of Method A TR-FRET, Method B electrophoretic mobility shift, Method C radiometric filter binding); format: biochemical; settings: read-out: BTK-WT (IC50)
# T2 construct: purified from insect cells as a full-length construct containing an N-terminal 6X-His tag; His6 (N); made in house; host or cells: insect cells (baculovirus Sf21 in Method B)
# T2 sequence (Q06187 whole entry): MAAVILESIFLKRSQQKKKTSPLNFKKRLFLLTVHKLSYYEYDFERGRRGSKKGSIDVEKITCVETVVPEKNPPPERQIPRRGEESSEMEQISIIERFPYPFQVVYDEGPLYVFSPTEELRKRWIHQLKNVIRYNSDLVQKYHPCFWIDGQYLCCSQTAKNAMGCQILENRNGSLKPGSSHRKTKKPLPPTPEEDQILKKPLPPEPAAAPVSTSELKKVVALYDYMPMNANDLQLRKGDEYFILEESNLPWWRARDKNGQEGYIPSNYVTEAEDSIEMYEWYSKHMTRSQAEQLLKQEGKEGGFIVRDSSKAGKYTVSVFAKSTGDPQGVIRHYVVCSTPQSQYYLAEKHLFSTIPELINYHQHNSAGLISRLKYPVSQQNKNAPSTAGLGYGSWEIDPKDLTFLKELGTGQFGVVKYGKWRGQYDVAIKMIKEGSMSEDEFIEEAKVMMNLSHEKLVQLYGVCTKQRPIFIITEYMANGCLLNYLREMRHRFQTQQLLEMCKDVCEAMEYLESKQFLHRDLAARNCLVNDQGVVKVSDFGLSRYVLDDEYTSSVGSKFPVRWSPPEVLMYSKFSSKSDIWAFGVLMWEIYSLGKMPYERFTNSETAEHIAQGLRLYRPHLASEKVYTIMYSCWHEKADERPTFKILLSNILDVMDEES
Structure (SMILES),"pIC50 ([1]; Table 10, Formula A-I)","pIC50 ([2]; Table 10, Formula A-I)","pIC50 ([1]; Table 11, Formula B-I)","pIC50 ([2]; Table 11, Formula B-I)"
"Cc1cc(Nc2nc(N3CCC[C@@H](NC(=O)c4ccc(N(C)C)cc4)[C@H]3CO)cnc2C(N)=O)sn1 (stereo in doubt) [Example A-68, 5-[(2S,3R)-3-[4-(dimethylamino)benzamido]-2-(hydroxymethyl)piperidin-1-yl]-3-[(3-methyl-1,2-thiazol-5-yl)amino]pyrazine-2-carboxamide]",< 5.00,6.00 to 7.00,–,–
"Cc1cc(Nc2nc(N3CCC[C@@H](NC(=O)c4ccc(C(C)(C)C)cc4)C3)cnc2C(N)=O)sn1 [Example A-37, 5-[(3R)-3-(4-tert-butylbenzamido)piperidin-1-yl]-3-[(3-methyl-1,2-thiazol-5-yl)amino]pyrazine-2-carboxamide]",< 5.00,≥ 7.00,–,–
"Cc1cc(Nc2nc(N3CCC[C@@H](NC(=O)c4ccc(C5CC5)cc4F)C3)cnc2C(N)=O)sn1 [Example A-39, 5-[(3R)-3-(4-cyclopropyl-2-fluorobenzamido)piperidin-1-yl]-3-[(3-methyl-1,2-thiazol-5-yl)amino]pyrazine-2-carboxamide]",< 5.00,≥ 7.00,–,–
"Cc1cc(Nc2nc(N3CCC[C@@H](N(C)C(=O)c4ccc(C(C)C)cc4)C3)cnc2C(N)=O)sn1 [Example A-40, 3-[(3-methyl-1,2-thiazol-5-yl)amino]-5-[(3R)-3-[N-methyl4-(propan-2-yl)benzamido]piperidin-1-yl]pyrazine-2-carboxamide]",< 5.00,≥ 7.00,–,–
"Cc1cc(Nc2cc(N3CCC[C@@H](NC(=O)c4ccc(C(C)C)cc4)C3)cnc2C(N)=O)sn1 [Example A-63, 3-[(3-methyl-1,2-thiazol-5-yl)amino]-5-[(3R)-3-[4-(propan-2-yl)benzamido]piperidin-1-yl]pyridine-2-carboxamide]",< 5.00,≥ 7.00,–,–
"CC(C)c1ccc(C(=O)N[C@@H]2CCCN(c3cnc(C(N)=O)c(Nc4ccccc4)n3)C2)cc1 [Example A-65, 3-(phenylamino)-5-[(3R)-3-[4-(propan-2-yl)benzamido]piperidin-1-yl]pyrazine-2-carboxamide]",< 5.00,5.00 to 6.00,–,–
"Cc1cc(Nc2c(C(N)=O)ncc(N3CCC[C@@H](NC(=O)c4ccc(N(C)C)cc4)C3)c2C)sn1 [Example A-66, 5-[(3R)-3-[4-(dimethylamino)benzamido]piperidin-1-yl]-4-methyl-3-[(3-methyl-1,2-thiazol-5-yl)amino]pyridine-2-carboxamide]",< 5.00,5.00 to 6.00,–,–
"Cc1cc(Nc2nc(N3CCC[C@@H](NC(=O)c4ccc(N(C)C)cc4)[C@@H]3CO)cnc2C(N)=O)sn1 [Example A-69, 5-[(2R,3R)-3-[4-(dimethylamino)benzamido]-2-(hydroxymethyl)piperidin-1-yl]-3-[(3-methyl-1,2-thiazol-5-yl)amino]pyrazine-2-carboxamide]",< 5.00,6.00 to 7.00,–,–
"Cc1cc(Nc2nc(N3CCC[C@H](NC(=O)c4ccc(N(C)C)cc4)[C@H]3CO)cnc2C(N)=O)sn1 [Example A-70, 5-[(2S,3S)-3-[4-(dimethylamino)benzamido]-2-(hydroxymethyl)piperidin-1-yl]-3-[(3-methyl-1,2-thiazol-5-yl)amino]pyrazine-2-carboxamide]",< 5.00,6.00 to 7.00,–,–
"Cc1cc(Nc2nc(N3CCCC(CNC(=O)c4ccccc4)C3)cnc2C(N)=O)sn1 (stereo not drawn) [Example A-79, 3-[(3-methyl-1,2-thiazol-5-yl)amino]-5-{3-[(phenylformamido)methyl]piperidin-1-yl}pyrazine-2-carboxamide]",5.00 to 6.00,≥ 7.00,–,–
Cc1cc(Nc2nc(N3CCCC(CNC(=O)c4ccc(N(C)C)cc4)C3)cnc2C(N)=O)sn1 (stereo not drawn) [Example A-80],5.00 to 6.00,≥ 7.00,–,–
"C[C@@H]1[C@H](NC(=O)c2ccc(C3CC3)cc2F)CCCN1c1cnc(C(N)=O)c(Nc2ccc(N3CCN(C)CC3)cc2)n1 [Example A-81, 5-[(2R,3R)-3-(4-cyclopropyl-2-fluorobenzamido)-2-methylpiperidin-1-yl]-3-{[4-(4-methylpiperazin-1-yl)phenyl]amino}pyrazine-2-carboxamide]",5.00 to 6.00,≥ 7.00,–,–
"CC(C)c1ccc(C(=O)N[C@@H]2CCCN(c3cnc(C(N)=O)c(Nc4ccc(CN(C)C)cc4)n3)C2)cc1 [Example A-83, 3-({4-[(dimethylamino)methyl]phenyl}amino)-5-[(3R)-3-[4-(propan-2-yl)benzamido]piperidin-1-yl]pyrazine-2-carboxamide]",5.00 to 6.00,≥ 7.00,–,–
CN(C)c1ccc(C(=O)N[C@H]2CC[C@H](Nc3cnc(C(N)=O)c(Nc4ccc5ncccc5c4)n3)CC2)cc1 [Example B-2],–,–,< 5.00,6.00 to 7.00
"Cc1cc(Nc2nc(NC3CCC(NC(=O)N(C)C)CC3)cnc2C(N)=O)sn1 (stereo not drawn) [Example B-3, 5-({4-[(dimethylcarbamoyl)amino]cyclohexyl}amino)-3-[(3-methyl-1,2-thiazol-5-yl)amino]pyrazine-2-carboxamide]",–,–,> 7.00,≥ 7.00

# Continued, values first:
"pIC50 ([1]; Table 10, Formula A-I)","pIC50 ([2]; Table 10, Formula A-I)","pIC50 ([1]; Table 11, Formula B-I)","pIC50 ([2]; Table 11, Formula B-I)",Structure (SMILES)
6.00 to 7.00,≥ 7.00,–,–,"Cc1cccc(C(=O)N[C@@H]2CCCN(c3cnc(C(N)=O)c(Nc4ccc(C5CCN(C6CCCC6)CC5)cc4)n3)C2)c1 [Example A-8, 3-{[4-(1-cyclopentylpiperidin-4-yl)phenyl]amino}-5-[(3R)-3-(3-methylbenzamido)piperidin-1-yl]pyrazine-2-carboxamide]"
5.00 to 6.00,≥ 7.00,–,–,"CCn1cc2cc(C(=O)N[C@@H]3CCCN(c4cnc(C(N)=O)c(Nc5cc(C)ns5)n4)C3)ccc2n1 [Example A-38, N-[(3R)-1-{5-carbamoyl-6-[(3-methyl-1,2-thiazol-5-yl)amino]pyrazin-2-yl}piperidin-3-yl]-2-ethyl-2H-indazole-5-carboxamide]"
6.00 to 7.00,≥ 7.00,–,–,"Cc1cc(Nc2nc(N3CCC[C@@H](NC(=O)c4ccc(N(C)C)cc4)[C@H]3C)cnc2C(N)=O)sn1 [Example A-55, 5-[(2R,3R)-3-[4-(dimethylamino)benzamido]-2-methylpiperidin-1-yl]-3-[(3-methyl-1,2-thiazol-5-yl)amino]pyrazine-2-carboxamide]"
5.00 to 6.00,≥ 7.00,–,–,"Cc1cc(Nc2nc(N3CCC[C@@H](NC(=O)c4ccc(C(C)C)cc4)[C@H]3C)cnc2C(N)=O)sn1 [Example A-56, 3-[(3-methyl-1,2-thiazol-5-yl)amino]-5-[(2R,3R)-2-methyl-3-[4-(propan-2-yl)benzamido]piperidin-1-yl]pyrazine-2-carboxamide]"
5.00 to 6.00,5.00 to 6.00,–,–,"CC(C)c1ccc(C(=O)N[C@@H]2CCCN(c3cnc(C(N)=O)c(Nc4ccccn4)n3)C2)cc1 [Example A-71, 5-[(3R)-3-[4-(propan-2-yl)benzamido]piperidin-1-yl]-3-[(pyridin-2-yl)amino]pyrazine-2-carboxamide]"
5.00 to 6.00,≥ 7.00,–,–,"CCN1N=CC2C=C(C(=O)N[C@@H]3CCCN(c4cnc(C(N)=O)c(Nc5cc(C)ns5)n4)C3)C=CC21 (stereo partly drawn) [Example A-72, N-[(3R)-1-{5-carbamoyl-6-[(3-methyl-1,2-thiazol-5-yl)amino]pyrazin-2-yl}piperidin-3-yl]-1-ethyl-3a,7a-dihydro-1H-indazole-5-carboxamide]"
5.00 to 6.00,≥ 7.00,–,–,"Cc1cc(Nc2nc(N3CCC[C@@H](NC(=O)c4ccc(C5CC5)c(F)c4)C3)cnc2C(N)=O)sn1 [Example A-73, 5-[(3R)-3-(4-cyclopropyl-3-fluorobenzamido)piperidin-1-yl]-3-[(3-methyl-1,2-thiazol-5-yl)amino]pyrazine-2-carboxamide]"
5.00 to 6.00,≥ 7.00,–,–,"Cc1cc(Nc2nc(N3CCC[C@@H](NC(=O)c4ccc(C5CC5)cc4F)[C@H]3C)cnc2C(N)=O)sn1 [Example A-74, 5-[(2R,3R)-3-(4-cyclopropyl-2-fluorobenzamido)-2-methylpiperidin-1-yl]-3-[(3-methyl-1,2-thiazol-5-yl)amino]pyrazine-2-carboxamide]"
5.00 to 6.00,≥ 7.00,–,–,"Cc1cc(Nc2nc(N3CCCC(CNC(=O)N(C)C)C3)cnc2C(N)=O)sn1 (stereo not drawn) [Example A-78, 5-(3-{[(dimethylcarbamoyl)amino]methyl}piperidin-1-yl)-3-[(3-methyl-1,2-thiazol-5-yl)amino]pyrazine-2-carboxamide]"
